We go through 87 compounds from a melting point compilation (Tetko et al.; mined from patent text by program, amines drawn as free bases though some values may be those of a salt).

Some results are limits rather than exact numbers.

The term melting point denotes the temperature, or range, at which the solid turns liquid. Regarding `O=C(O)c1cccc(C(=O)C=Cc2ccc(OCc3ccccc3)cc2)c1O`, the melting point was in the range of 174 to 175 °C. With `Clc1ccc(C2=CCN(Cc3coc4ncccc34)CC2)cc1` the figure was 116 °C; with `COc1cc2c(c(Cl)c1Cl)SC(C1CCCC1)C2O` (configuration not stated), 129 to 132 °C; with `Cc1nc(SCc2ccc(C(=O)O)s2)sc1CC(=O)O`, 188 to 190 °C. The figure for `COC(=O)c1ccc(CNC(=NC#N)NCCNC(=O)c2nc(Cl)c(N)nc2N)cc1` is 190 to 195 °C. In turn, `Nc1ccccc1NC(=O)/C=C/c1ccccc1I` came in with a melting point of 194 to 196 °C. The figure for `CS(=O)(=O)c1ccc(-c2cnn(-c3ccc(Cl)s3)c(=O)c2-c2ccc(F)cc2)cc1` is 190 to 192 °C. Compound `CC/C=C(\C)CNc1cccc(-c2ccnc3c(C(=O)c4cccs4)cnn23)c1` registered a melting point of 132 to 133 °C. On to `CCOC(=O)CSCc1nc(NCc2ccc(OC)c(Cl)c2)c2c3c(sc2n1)CCCC3`, for which the melting point was 158 to 160 °C. The figure for `CC(=O)Nc1cc(C)c(C)cc1OC(C)=O` is 156 to 158 °C; for `O=C(NCc1ccc([N+](=O)[O-])cc1)c1ccc2cccnc2c1O` it is 210 to 212 °C. The figure for `O=C(O)CCc1cc2ccccc2s1` is 140 to 142 °C; for `COCCO[C@@H]1c2ccc3c(nc(C)n3C)c2O[C@H](c2ccccc2)[C@H]1O` it is 163 °C. In turn, `CCC(=O)Nc1nc(CN2CCC(c3c[nH]c4ccccc34)CC2)cs1` yielded a melting point of 192 to 195 °C. For `C[Si](C)(C)c1ccc2cc(C(=O)Nc3ccc(N4CC(O)C4)nc3)n(Cc3cccc(F)c3)c2c1`, the melting point lay in the range of 188 to 189 °C. As to `N#Cc1ccccc1C=C1c2ccccc2CCc2ccccc21`, the melting point was found to be 185 °C.

With `CCOC(=O)c1ccc(/C=C(\C)c2ccc3c(c2)CCC(C)(C)CS3)cc1`, the melting point was in the range of 96 to 97 °C. With `CCOC(=O)C1=C(N2CC2C(N)=O)CCCC1` (configuration not stated) the figure was 101 to 104 °C.

`O=C(O)c1cc([N+](=O)[O-])ccc1Nc1ccc(CCc2ccc(Cl)c(Cl)c2)cc1`: the melting point is 214 to 217 °C. The figure for `O=C(/C=C/c1ccc(O)cc1Cl)CC(=O)/C=C/c1cc(O)ccc1[N+](=O)[O-]` is 132 to 136 °C. The figure for `O=C(Cc1c[nH]c2ccccc12)NC1N=C(c2ccccc2)c2ccccc2NC1=O` (racemic) is 264 to 265 °C; for `COc1ccc(C=O)cc1CN1C(=O)c2ccccc2C1=O` it is 109 to 111 °C; for `O=S(=O)(NCc1ccncc1)c1ccc(I)cc1` it is 174 to 176 °C.

Take `C=C1C=Cc2cc(C(=O)Nc3ccccc3)ccc2OC1`: the melting point stood at 139 °C. With `CCCCC1C(=O)N(C(=O)NCCc2ccc(S(=O)(=O)NC(=O)NC3CCC(C)CC3)cc2)CCC1C` (configuration not stated) the figure was 131 to 133 °C; with `COc1ccc(S(=O)(=O)NCCc2ccc(C(C)=O)cc2)cc1`, 122 to 123 °C.

With `O=c1c2ccccc2ccc2cc(Cl)ccc12`, the melting point fell in the range of 160 to 161 °C. `Nc1ccc(CN2CCN(c3ccccc3)CC2)cc1` returned a melting point of 105 °C. Consider `O=C(O)c1cc(F)c(F)cc1NC(=O)c1cc(-c2ccc(Cl)cc2)oc1C(F)(F)F`, for which the melting point was 337 to 340 °C. With `Cc1ccc2nc(-c3cc(C(F)F)nn3-c3ccc(S(C)(=O)=O)cc3)sc2c1` the figure was 183 to 184 °C; with `COC(=O)c1cc(C(C)=O)c(O)cc1O`, 124 to 126 °C. With `O=C(Sc1ccccn1)c1c(F)c(F)c(F)c(F)c1F` the figure was 51 °C; with `CCC(COC)(OC)c1cc(F)cc(OCc2ccccc2)c1` (configuration not stated), 61 to 62 °C; with `COc1ccccc1Nc1cc(-c2c(-c3cccc(C)c3)nc3cccnn23)ccn1`, 157 to 158 °C. The figure for `COc1cccc(Oc2cccc(C#CC(C)N(O)C(N)=O)c2)n1` (configuration not stated) is 90 to 91 °C; for `Cc1nn(-c2cccnc2)c2nc3cc(F)c(F)cc3c(Cl)c12` it is 192 to 194 °C; for `CCOC(=O)C(=O)Nc1ccc(C=Cc2ccc3ccccc3n2)cc1` it is 160 to 162 °C.

Consider `CCOCc1nc2c(N)nc3cc(-c4cccc(C(N)=O)c4)cnc3c2n1CC(C)(C)O`, for which the melting point was greater than 250 °C.

The compound `COC1CN(Cc2ccc(Nc3cc(-c4cccc(-n5ncc6cc(C(C)(C)C)cc(F)c6c5=O)c4CO)nn(C)c3=O)nc2)C1` displayed a melting point of 140 to 142 °C. The figure for `CNC(=O)c1cc(Oc2ccc(NC(=O)Nc3ccc(Cl)c(C(F)(F)F)c3)cc2)ccn1` is 82 to 85 °C; for `NC1=NC2(CN(C(=O)OCc3ccccc3)C2)Nc2cccc(F)c21` it is 157 to 159 °C; for `CC(C)C1Oc2ccccc2NC1=O` (configuration not stated) it is 118 to 119 °C. In the case of `CC1CCCN1CCCOc1ccc2c(c1)CCC1CC(=O)NN=C21` (configuration not stated), the melting point was in the range of 193 to 195 °C.

`CCOC(=O)C(=NO)c1csc(NC(c2ccccc2)(c2ccccc2)c2ccccc2)n1` showed a melting point of 260 °C. The figure for `CCCCCCCCC1(CCCCCCCC)c2cc(Cl)ccc2-c2ccc(Cl)cc21` is 50 to 51 °C; for `COC(=O)CC(C#N)(C(=O)OC)c1cccc2ccc(OC)cc12` (configuration not stated) it is 119 to 121 °C; for `COc1cc(/C=C/C(=O)/C=C/c2ccc(OC(F)(F)F)cc2)ccc1O` it is 93 to 95 °C. With `O=C(O)CN1CCC(OC(c2ccc(F)cc2)c2ccc(F)cc2)CC1` the figure was 126 to 128 °C. For the compound `CCCCCCCCOC(=O)/C(C#N)=C/C=C/N(C)C`, the melting point fell in the range of 80 to 81 °C. With `COc1cc2c(c(OC)c1OC)C(=O)C(CCCCCCC1Cc3cc(OC)c(OC)c(OC)c3C1=O)C2` (configuration not stated) the figure was 129 to 130 °C. The figure for `CC12CCC=CC1=CCC1C2CCC2(C)C(c3cccnc3)=CCC12` (configuration not stated) is 110 to 112 °C; for `COc1ccc(OC)c(S(=O)(=O)n2c(COC(C)(C)C(=O)O)cc3nc(Cl)ccc32)c1` it is 200 °C; for `Cc1ccc(-c2c(NS(=O)(=O)c3ccc(C(C)(C)C)cc3)ncnc2OCCOc2ccc(N)cc2)cc1` it is 190 to 191 °C.

In the case of `CC(C)(C(=O)N1CCc2ccccc2C1)c1ccc(S(=O)(=O)/C=C/C#N)cc1`, the melting point was 54 to 60 °C. With `OCC1OC(n2cnc3c(NN4CCCCC4)nc(F)nc32)C(O)C1O` (configuration not stated) the figure was 197 to 199 °C. The figure for `OC(CCc1cccnc1)COc1ccc(C=Cc2ccccc2)cc1` (configuration not stated) is 110 to 111 °C; for `CC1=C(C#N)S(=O)(=O)c2ccc(C(F)(F)F)cc2N1` it is 329 to 333 °C.

On to `CCOC(=O)c1nc2c(=O)[nH]c3cc(F)ccc3n2c1C`, for which the melting point is greater than 250 °C. With `O=C(/C=C/c1ccccc1)OCCOC(=O)NC1(C(=O)O)CC1` the figure was 169 to 172 °C; with `CON(C(=O)c1cccnc1Cl)C1CCCCC1`, 96 to 98 °C. `COc1ccc(C2CCc3cc(OC)ccc3C2CCCn2ccnc2)cc1` (configuration not stated) gave a melting point of 67 °C.

Turning to `COC(=O)c1cc(-n2c(-c3ccccc3)cc3c2CCCC3)ccc1O`, the melting point was 141 to 142 °C. The figure for `C=CCC1NC(=O)C1C(C)(C)O` (configuration not stated) is 144 °C; for `O=C1c2ccccc2COc2ccc(Br)cc21` it is 132 to 134 °C. For `CC(C)(C)c1ccc(CCC(O)CC2CCCC2)cc1NC(=O)CC1c2ccccc2Oc2ccccc21` (configuration not stated), the melting point is 142 to 143 °C. With `O=C(CCl)c1cc(Br)ccc1O` the figure was 79 °C; with `Cc1ccc(-c2c(C(=O)NCc3cc(C(F)(F)F)cc(C(F)(F)F)c3)n(CCCCCO)c(=O)c3ncccc23)cc1`, 136 to 137 °C.

Compound `NC(CC1c2ccccc2Oc2ccccc21)(C(=O)O)c1ccc(C(=O)O)c(O)c1` (configuration not stated) came in with a melting point of 191 to 194 °C. With `COC(=O)c1cc(Cl)cc2c1OCCN2C` the figure was 91 to 92 °C. The figure for `CC(=O)Nc1ccc2c(c1)C(C)(C)CCC2(C)C` is 116 to 118 °C. As to `CCOc1cc(C(=O)O)cc(N)c1Cc1ccccc1`, the melting point fell in the range of 165 to 167 °C. With `CCOC(=O)C(C#N)=Cc1c(Cl)n(Cc2ccc(Cl)cc2)c2ccccc12` the figure was 179 to 180 °C. In turn, `O=C1C=Cc2cc3c(cc2=C1)C=C(S(=O)(=O)NCCN1CCOCC1)C(=O)C=3S(=O)(=O)NCCN1CCOCC1` registered a melting point of 230 to 233 °C. The figure for `CC(C)c1cccc(C(C)C)c1NC(=O)N(Cc1ccccc1)[C@H]1CC[C@@H](c2ccccc2)CC1` is 148 to 149 °C; for `CCCc1c(OCc2cccc(OCc3ccc4ccccc4n3)c2)ccc2c(=O)cc(C(=O)O)oc12` it is 218 to 222 °C. With `COc1nc(C)cnc1NS(=O)(=O)c1cccnc1-c1ccc(OCc2ccc(C(=O)O)cc2)cc1` the figure was 204 to 205 °C. The figure for `N#CCCc1oc(/C=C/c2ccccc2)nc1-c1ccccc1` is 117 to 118 °C; for `COC(=O)[C@@H]1[C@H](NC(=O)Cc2ccccc2)C(=O)N1Cc1ccc(OC)cc1OC` (relative stereo) it is 124 to 126 °C. As for `Cc1cc(Br)cnc1CCCCNc1ncc(Cc2ccn(Cc3ccccc3)c(=O)c2)c(=O)[nH]1`, the melting point is 140 to 144 °C. With `CCN1CCN(C(=O)NC(C(=O)O)c2cc(OC(C)=O)c(OC(C)=O)cc2F)C(=O)C1=O` (configuration not stated) the figure was 177 to 179 °C. The figure for `COc1cc(C#N)ccc1C1=CC(C)(C)Oc2ccc(C#N)cc21` is 137 to 139 °C. The compound `N#CCOc1cccnc1N` came in with a melting point of 100 to 101 °C. The figure for `COc1ccc(C2=CC(N3CCN(Cc4ccccc4)CC3)=NC23C=CC(=O)C=C3)cc1` is 190 °C; for `CC(C)(CO)NC(=O)CBr` it is 107 to 109 °C; for `COc1ccc(OC)n2nc(N)nc12` it is 223 to 234 °C. The figure for `CN(C(=O)CN1C(=O)C(NC(=O)Nc2cccc(C#N)c2)N=C(CN2CCOCC2)c2ccccc21)c1ccccc1` (configuration not stated) is 165 to 167 °C; for `CCOC(=O)C(C)=CC=CC(C)=CC=CC=C(C)C=CC=C(C)C1OCC(C)(C)CO1` it is 158 °C.
